# Test results published in paper PMC9856672, “SGC-CAMKK2-1: A Chemical Probe for CAMKK2” (Cells, 2023).
# Legend:
# STK36 = target: T1, STK36 (Homo sapiens, UniProt Q9NRP7); test: KINOMEscan at 1 μM, STK36; type: binding; conditions: 1000 nM, read-out: Percent Control
# T1 construct: purchased Eurofins DiscoverX KINOMEscan
# Excerpt: (§1) Supplement cells-12-00287-s001.zip/File S2. KinomeScan data for the CAMKK2 probe and negative control.xlsx, sheet "SGC-CAMKK2-1N" | column: Percent Control
# PDGFRA = target: T2, PDGFRA (Homo sapiens, UniProt P16234); test: KINOMEscan at 1 μM, PDGFRA; type: binding; conditions: 1000 nM, read-out: Percent Control
# T2 construct: purchased Eurofins DiscoverX KINOMEscan
# T2 sequence (P16234 24-1089): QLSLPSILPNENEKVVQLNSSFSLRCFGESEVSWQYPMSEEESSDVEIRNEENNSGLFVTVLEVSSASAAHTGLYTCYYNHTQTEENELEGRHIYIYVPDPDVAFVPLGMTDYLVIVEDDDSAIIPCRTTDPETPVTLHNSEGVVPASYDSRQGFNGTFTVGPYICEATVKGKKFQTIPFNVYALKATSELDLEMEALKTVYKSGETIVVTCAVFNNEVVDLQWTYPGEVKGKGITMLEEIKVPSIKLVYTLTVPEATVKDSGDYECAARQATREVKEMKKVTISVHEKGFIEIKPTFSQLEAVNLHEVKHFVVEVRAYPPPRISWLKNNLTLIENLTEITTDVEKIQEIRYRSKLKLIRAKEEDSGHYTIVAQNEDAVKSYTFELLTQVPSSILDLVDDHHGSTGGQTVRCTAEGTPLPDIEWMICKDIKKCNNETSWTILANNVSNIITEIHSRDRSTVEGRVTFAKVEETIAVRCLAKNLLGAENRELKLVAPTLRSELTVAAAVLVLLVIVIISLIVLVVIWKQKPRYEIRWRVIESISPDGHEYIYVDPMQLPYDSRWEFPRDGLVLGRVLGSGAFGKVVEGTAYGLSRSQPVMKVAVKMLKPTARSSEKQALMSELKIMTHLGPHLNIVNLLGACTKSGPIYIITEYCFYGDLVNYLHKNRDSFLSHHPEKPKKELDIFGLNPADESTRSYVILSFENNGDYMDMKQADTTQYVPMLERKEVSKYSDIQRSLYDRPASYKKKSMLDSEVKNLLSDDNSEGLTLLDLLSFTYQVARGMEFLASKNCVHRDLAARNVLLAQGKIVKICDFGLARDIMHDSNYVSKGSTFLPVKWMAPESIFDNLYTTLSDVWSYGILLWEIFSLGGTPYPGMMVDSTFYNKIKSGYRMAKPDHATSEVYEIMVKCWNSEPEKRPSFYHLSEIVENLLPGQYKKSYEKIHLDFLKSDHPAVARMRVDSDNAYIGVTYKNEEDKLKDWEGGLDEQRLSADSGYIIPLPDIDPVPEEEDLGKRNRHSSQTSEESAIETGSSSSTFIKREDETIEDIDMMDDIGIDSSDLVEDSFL
# Excerpt: as §1
# SLK = target: T3, SLK (Homo sapiens, UniProt Q9H2G2); test: KINOMEscan binding assay at 1 μM, SLK; conditions: Compound Concentration 1000 nM; read-out: Percent Control
# T3 construct: purchased Eurofins DiscoverX KINOMEscan
# Excerpt: as §1
# FAK = target: T4, FAK (Homo sapiens, UniProt Q05397); test: KINOMEscan at 1 μM, FAK; type: binding; conditions: 1000 nM, read-out: Percent Control
# T4 construct: purchased Eurofins DiscoverX KINOMEscan
# Excerpt: as §1
# [1] = target: T5, JAK2(JH1domain-catalytic) (Homo sapiens, UniProt O60674); test: KINOMEscan at 1 μM, JAK2(JH1domain-catalytic); type: binding; conditions: 1000 nM, read-out: Percent Control
# T5 construct: JAK2(JH1domain-catalytic); purchased Eurofins DiscoverX KINOMEscan
# T5 sequence (O60674 840-1132 limits assumed): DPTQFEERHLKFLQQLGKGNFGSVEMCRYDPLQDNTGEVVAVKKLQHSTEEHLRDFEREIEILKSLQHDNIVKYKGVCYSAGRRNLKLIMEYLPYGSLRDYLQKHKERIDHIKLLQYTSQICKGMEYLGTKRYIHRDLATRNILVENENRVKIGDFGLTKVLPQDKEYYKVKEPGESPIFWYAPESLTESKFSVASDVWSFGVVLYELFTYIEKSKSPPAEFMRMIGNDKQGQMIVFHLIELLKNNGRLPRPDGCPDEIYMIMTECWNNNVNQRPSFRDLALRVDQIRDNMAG
# Excerpt: as §1
# TSSK3 = target: T6, TSSK3 (Homo sapiens, UniProt Q96PN8); test: KINOMEscan at 1 μM, TSSK3; type: binding; conditions: 1000 nM, read-out: Percent Control
# T6 construct: purchased Eurofins DiscoverX KINOMEscan
# Excerpt: as §1
# [2] = target: T7, JAK1(JH1domain-catalytic) (Homo sapiens, UniProt P23458); test: KINOMEscan at 1 μM, JAK1(JH1domain-catalytic); type: binding; conditions: 1000 nM, read-out: Percent Control
# T7 construct: JAK1(JH1domain-catalytic); purchased Eurofins DiscoverX KINOMEscan
# T7 sequence (P23458 854-1154 limits assumed): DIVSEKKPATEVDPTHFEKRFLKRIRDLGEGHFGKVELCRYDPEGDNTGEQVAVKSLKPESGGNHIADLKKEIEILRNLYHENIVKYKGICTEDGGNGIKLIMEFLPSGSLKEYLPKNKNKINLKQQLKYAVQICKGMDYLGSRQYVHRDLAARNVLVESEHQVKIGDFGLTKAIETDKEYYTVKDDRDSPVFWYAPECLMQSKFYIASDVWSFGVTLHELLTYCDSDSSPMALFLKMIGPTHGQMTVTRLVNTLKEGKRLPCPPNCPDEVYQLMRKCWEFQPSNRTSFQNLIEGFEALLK
# Excerpt: as §1
# SBK1 = target: T8, SBK1 (Homo sapiens, UniProt Q52WX2); test: KINOMEscan at 1 μM, SBK1; type: binding; conditions: 1000 nM, read-out: Percent Control
# T8 construct: purchased Eurofins DiscoverX KINOMEscan
# Excerpt: as §1
# MST1 = target: T9, MST1 (Homo sapiens, UniProt Q13043); test: KINOMEscan binding assay at 1 μM, MST1; conditions: Compound Concentration 1000 nM; read-out: Percent Control
# T9 construct: purchased Eurofins DiscoverX KINOMEscan
# Excerpt: as §1
# EPHB2 = target: T10, EPHB2 (Homo sapiens, UniProt P29323); test: KINOMEscan binding assay at 1 μM, EPHB2; conditions: Compound Concentration 1000 nM; read-out: Percent Control
# T10 construct: purchased Eurofins DiscoverX KINOMEscan
# Excerpt: as §1
# PRKG2 = target: T11, PRKG2 (Homo sapiens, UniProt Q13237); test: KINOMEscan at 1 μM, PRKG2; type: binding; conditions: 1000 nM, read-out: Percent Control
# T11 construct: purchased Eurofins DiscoverX KINOMEscan
# Excerpt: as §1
# TLK2 = target: T12, TLK2 (Homo sapiens, UniProt Q86UE8); test: KINOMEscan at 1 μM, TLK2; type: binding; conditions: 1000 nM, read-out: Percent Control
# T12 construct: purchased Eurofins DiscoverX KINOMEscan
# Excerpt: as §1
# MST1R [3] = target: T13, MST1R (Homo sapiens, UniProt Q04912); test: KINOMEscan at 1 μM, MST1R; type: binding; conditions: 1000 nM, read-out: Percent Control
# T13 construct: purchased Eurofins DiscoverX KINOMEscan
# T13 sequence (Q04912 25-1400): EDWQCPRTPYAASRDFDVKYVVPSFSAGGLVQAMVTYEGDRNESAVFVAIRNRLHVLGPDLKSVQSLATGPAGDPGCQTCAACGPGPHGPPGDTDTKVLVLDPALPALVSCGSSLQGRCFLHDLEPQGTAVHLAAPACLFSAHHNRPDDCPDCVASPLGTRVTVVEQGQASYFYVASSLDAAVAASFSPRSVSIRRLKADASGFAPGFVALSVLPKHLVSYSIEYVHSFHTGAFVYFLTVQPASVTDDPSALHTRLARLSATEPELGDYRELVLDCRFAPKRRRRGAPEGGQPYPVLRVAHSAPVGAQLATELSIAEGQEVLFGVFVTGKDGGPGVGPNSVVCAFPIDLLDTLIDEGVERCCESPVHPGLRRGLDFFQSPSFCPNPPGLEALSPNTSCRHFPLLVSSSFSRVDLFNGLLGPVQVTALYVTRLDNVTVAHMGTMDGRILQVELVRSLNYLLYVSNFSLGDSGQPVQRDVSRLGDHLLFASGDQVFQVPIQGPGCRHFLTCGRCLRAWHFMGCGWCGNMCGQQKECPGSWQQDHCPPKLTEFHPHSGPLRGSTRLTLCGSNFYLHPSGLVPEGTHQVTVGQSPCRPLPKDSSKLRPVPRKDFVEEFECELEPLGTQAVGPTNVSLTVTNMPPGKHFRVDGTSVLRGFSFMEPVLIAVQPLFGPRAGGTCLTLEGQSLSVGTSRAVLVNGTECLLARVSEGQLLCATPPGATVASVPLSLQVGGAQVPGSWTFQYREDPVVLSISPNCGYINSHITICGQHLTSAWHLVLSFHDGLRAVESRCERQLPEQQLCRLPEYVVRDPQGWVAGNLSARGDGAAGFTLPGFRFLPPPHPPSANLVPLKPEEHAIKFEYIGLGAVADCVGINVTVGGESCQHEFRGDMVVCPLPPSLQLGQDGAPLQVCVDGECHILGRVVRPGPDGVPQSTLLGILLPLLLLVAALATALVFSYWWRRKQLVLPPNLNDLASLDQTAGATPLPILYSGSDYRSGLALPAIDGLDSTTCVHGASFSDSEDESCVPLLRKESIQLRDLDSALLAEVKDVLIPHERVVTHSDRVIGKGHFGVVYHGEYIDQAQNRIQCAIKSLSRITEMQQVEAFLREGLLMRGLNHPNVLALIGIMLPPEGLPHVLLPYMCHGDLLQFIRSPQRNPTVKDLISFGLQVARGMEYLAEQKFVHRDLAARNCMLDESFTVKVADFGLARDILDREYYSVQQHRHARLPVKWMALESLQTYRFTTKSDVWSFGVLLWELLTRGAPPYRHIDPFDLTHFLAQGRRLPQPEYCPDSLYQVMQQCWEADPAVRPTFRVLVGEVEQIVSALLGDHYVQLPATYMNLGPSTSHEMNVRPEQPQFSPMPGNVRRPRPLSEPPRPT
# Excerpt: as §1
# [4] = target: T14, TYK2(JH2domain-pseudokinase) (Homo sapiens, UniProt P29597); test: KINOMEscan at 1 μM, TYK2(JH2domain-pseudokinase); type: binding; conditions: 1000 nM, read-out: Percent Control
# T14 construct: TYK2(JH2domain-pseudokinase); purchased Eurofins DiscoverX KINOMEscan
# T14 sequence (P29597 556-888 limits assumed): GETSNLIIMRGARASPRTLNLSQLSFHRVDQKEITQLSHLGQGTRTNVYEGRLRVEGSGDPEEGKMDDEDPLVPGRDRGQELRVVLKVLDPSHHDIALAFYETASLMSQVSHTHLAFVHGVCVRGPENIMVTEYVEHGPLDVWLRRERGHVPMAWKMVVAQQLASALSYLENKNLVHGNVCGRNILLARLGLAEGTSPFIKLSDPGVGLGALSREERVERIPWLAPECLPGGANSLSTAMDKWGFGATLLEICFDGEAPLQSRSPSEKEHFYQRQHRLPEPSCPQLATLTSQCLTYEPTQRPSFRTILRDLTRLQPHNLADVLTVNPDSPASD
# Excerpt: as §1
# EGFR(L858R) = target: T15, EGFR(L858R) (Homo sapiens, UniProt P00533, L858R); test: KINOMEscan binding assay at 1 μM, EGFR(L858R); conditions: Compound Concentration 1000 nM; read-out: Percent Control
# T15 construct: purchased Eurofins DiscoverX KINOMEscan
# Excerpt: as §1
# [5] = target: T16, ABL1(E255K)-phosphorylated (Homo sapiens, UniProt P00519, E255K); test: KINOMEscan 1 μM, ABL1(E255K)-phosphorylated; type: binding; conditions: 1000 nM; Entrez ABL1; read-out: Percent Control
# T16 construct: purchased Eurofins DiscoverX KINOMEscan
# T16 sequence (P00519 whole entry E255K): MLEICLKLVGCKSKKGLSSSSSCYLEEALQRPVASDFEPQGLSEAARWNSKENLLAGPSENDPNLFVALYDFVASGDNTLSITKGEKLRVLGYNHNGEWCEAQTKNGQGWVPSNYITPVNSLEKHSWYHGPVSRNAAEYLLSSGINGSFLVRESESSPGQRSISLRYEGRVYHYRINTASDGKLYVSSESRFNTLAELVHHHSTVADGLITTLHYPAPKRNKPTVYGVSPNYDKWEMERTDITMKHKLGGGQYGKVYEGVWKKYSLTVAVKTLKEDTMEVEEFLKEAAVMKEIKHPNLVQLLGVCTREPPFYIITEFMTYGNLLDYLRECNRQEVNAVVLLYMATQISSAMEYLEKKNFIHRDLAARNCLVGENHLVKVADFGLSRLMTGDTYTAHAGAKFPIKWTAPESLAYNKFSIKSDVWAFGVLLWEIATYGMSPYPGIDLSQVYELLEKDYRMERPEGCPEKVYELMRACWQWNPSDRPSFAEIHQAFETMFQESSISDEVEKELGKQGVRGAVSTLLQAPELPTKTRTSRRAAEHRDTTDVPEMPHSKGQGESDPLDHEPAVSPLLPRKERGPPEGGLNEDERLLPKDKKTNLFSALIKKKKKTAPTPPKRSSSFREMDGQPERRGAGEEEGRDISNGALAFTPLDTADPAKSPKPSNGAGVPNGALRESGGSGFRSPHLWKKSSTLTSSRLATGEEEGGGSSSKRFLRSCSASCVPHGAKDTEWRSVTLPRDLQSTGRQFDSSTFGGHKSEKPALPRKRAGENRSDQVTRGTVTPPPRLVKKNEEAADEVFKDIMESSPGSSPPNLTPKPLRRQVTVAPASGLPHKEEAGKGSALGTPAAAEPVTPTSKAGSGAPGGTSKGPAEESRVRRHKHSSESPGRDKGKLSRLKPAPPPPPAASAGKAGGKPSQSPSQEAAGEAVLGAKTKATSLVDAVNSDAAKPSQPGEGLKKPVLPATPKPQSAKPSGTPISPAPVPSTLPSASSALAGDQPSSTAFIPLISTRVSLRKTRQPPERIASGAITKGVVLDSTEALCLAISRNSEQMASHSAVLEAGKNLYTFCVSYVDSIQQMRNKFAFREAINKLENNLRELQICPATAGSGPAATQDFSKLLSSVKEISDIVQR
# Excerpt: (§2) Supplement cells-12-00287-s001.zip/File S2. KinomeScan data for the CAMKK2 probe and negative control.xlsx, sheet "SGC-CAMKK2-1" | column: Percent Control
# AURKA = target: T17, AURKA (Homo sapiens, UniProt O14965); test: KINOMEscan 1 μM, AURKA; type: binding; conditions: 1000 nM; Entrez AURKA; read-out: Percent Control
# T17 construct: purchased Eurofins DiscoverX KINOMEscan
# Excerpt: as §2
# MST1R [6] = target: T13, MST1R; test: KINOMEscan 1 μM, MST1R; type: binding; conditions: 1000 nM; Entrez MST1R; read-out: Percent Control
# Excerpt: as §2
# NIK = target: T18, NIK (Homo sapiens, UniProt Q99558); test: KINOMEscan 1 μM, NIK; type: binding; conditions: 1000 nM; Entrez MAP3K14; read-out: Percent Control
# T18 construct: purchased Eurofins DiscoverX KINOMEscan
# Excerpt: as §2
# EIF2AK1 = target: T19, EIF2AK1 (Homo sapiens, UniProt Q9BQI3); test: KINOMEscan 1 μM, EIF2AK1; type: binding; conditions: 1000 nM; Entrez EIF2AK1; read-out: Percent Control
# T19 construct: purchased Eurofins DiscoverX KINOMEscan
# Excerpt: as §2
# NEK3 = target: T20, NEK3 (Homo sapiens, UniProt P51956); test: KINOMEscan 1 μM, NEK3; type: binding; conditions: 1000 nM; Entrez NEK3; read-out: Percent Control
# T20 construct: purchased Eurofins DiscoverX KINOMEscan
# Excerpt: as §2
# RET = target: T21, RET (Homo sapiens, UniProt P07949); test: KINOMEscan 1 μM, RET; type: binding; conditions: 1000 nM; Entrez RET; read-out: Percent Control
# T21 construct: purchased Eurofins DiscoverX KINOMEscan
# Excerpt: as §2
# EPHA3 = target: T22, EPHA3 (Homo sapiens, UniProt P29320); test: KINOMEscan 1 μM, EPHA3; type: binding; conditions: 1000 nM; Entrez EPHA3; read-out: Percent Control
# T22 construct: purchased Eurofins DiscoverX KINOMEscan
# Excerpt: as §2
# FLT4 = target: T23, FLT4 (Homo sapiens, UniProt P35916); test: KINOMEscan 1 μM, FLT4; type: binding; conditions: 1000 nM; Entrez FLT4; read-out: Percent Control
# T23 construct: purchased Eurofins DiscoverX KINOMEscan
# Excerpt: as §2
# [7] = target: T5, JAK2(JH1domain-catalytic); test: KINOMEscan 1 μM, JAK2(JH1domain-catalytic); type: binding; conditions: 1000 nM; Entrez JAK2; read-out: Percent Control
# Excerpt: as §2
# CAMK2A = target: T24, CAMK2A (Homo sapiens, UniProt Q9UQM7); test: KINOMEscan 1 μM, CAMK2A; type: binding; conditions: 1000 nM; Entrez CAMK2A; read-out: Percent Control
# T24 construct: purchased Eurofins DiscoverX KINOMEscan
# Excerpt: as §2
# IRAK1 = target: T25, IRAK1 (Homo sapiens, UniProt P51617); test: KINOMEscan 1 μM, IRAK1; type: binding; conditions: 1000 nM; Entrez IRAK1; read-out: Percent Control
# T25 construct: purchased Eurofins DiscoverX KINOMEscan
# Excerpt: as §2
# MET(M1250T) = target: T26, MET(M1250T) (Homo sapiens, UniProt P08581, M1250T); test: KINOMEscan 1 μM, MET(M1250T); type: binding; conditions: 1000 nM; Entrez MET; read-out: Percent Control
# T26 construct: purchased Eurofins DiscoverX KINOMEscan
# Excerpt: as §2
# CSNK1G3 = target: T27, CSNK1G3 (Homo sapiens, UniProt Q9Y6M4); test: KINOMEscan 1 μM, CSNK1G3; type: binding; conditions: 1000 nM; Entrez CSNK1G3; read-out: Percent Control
# T27 construct: purchased Eurofins DiscoverX KINOMEscan
# Excerpt: as §2
# MKNK1 = target: T28, MKNK1 (Homo sapiens, UniProt Q9BUB5); test: KINOMEscan 1 μM, MKNK1; type: binding; conditions: 1000 nM; Entrez MKNK1; read-out: Percent Control
# T28 construct: purchased Eurofins DiscoverX KINOMEscan
# Excerpt: as §2
# PKN2 = target: T29, PKN2 (Homo sapiens, UniProt Q16513); test: DiscoverX KINOMEscan binding assay at 1 μM, PKN2; conditions: Compound Concentration 1000 nM, read-out: Percent Control
# T29 construct: purchased Eurofins DiscoverX KINOMEscan
# Excerpt: as §2
# PCTK2 = target: T30, PCTK2 (Homo sapiens, UniProt Q00537); test: DiscoverX KINOMEscan binding assay at 1 μM, PCTK2; conditions: PCTK2 (CDK17); Compound Concentration 1000 nM; read-out: Percent Control
# T30 construct: purchased Eurofins DiscoverX KINOMEscan
# T30 sequence (Q00537 whole entry): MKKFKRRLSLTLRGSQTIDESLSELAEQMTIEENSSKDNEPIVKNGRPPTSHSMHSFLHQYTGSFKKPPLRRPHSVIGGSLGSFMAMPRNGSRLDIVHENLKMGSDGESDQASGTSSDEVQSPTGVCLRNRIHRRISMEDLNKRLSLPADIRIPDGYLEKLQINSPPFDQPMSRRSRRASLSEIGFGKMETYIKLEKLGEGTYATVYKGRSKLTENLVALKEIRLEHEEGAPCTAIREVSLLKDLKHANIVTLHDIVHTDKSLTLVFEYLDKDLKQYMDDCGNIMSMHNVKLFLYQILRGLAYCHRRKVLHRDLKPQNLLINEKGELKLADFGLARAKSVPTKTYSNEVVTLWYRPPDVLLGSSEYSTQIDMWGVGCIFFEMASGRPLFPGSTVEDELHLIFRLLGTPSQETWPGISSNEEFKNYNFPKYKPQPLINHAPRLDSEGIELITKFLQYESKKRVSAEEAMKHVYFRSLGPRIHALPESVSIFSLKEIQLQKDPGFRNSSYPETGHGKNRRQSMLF
# Excerpt: as §2
smiles,measurement,setting,value
O=C(O)c1ccc(-c2coc3ncc(-c4ccccc4)cc23)cc1Cl [SGC-CAMKK2-1N (UNC-YL-83)],remaining binding at 1 µM,STK36,75%
same,remaining binding at 1 µM,PDGFRA,74%
same,remaining binding at 1 µM,SLK,100%
same,remaining binding at 1 µM,FAK,96%
same,remaining binding at 1 µM,[1],80%
same,remaining binding at 1 µM,TSSK3,65%
same,remaining binding at 1 µM,[2],82%
same,remaining binding at 1 µM,SBK1,67%
same,remaining binding at 1 µM,MST1,100%
same,remaining binding at 1 µM,EPHB2,100%
same,remaining binding at 1 µM,PRKG2,80%
same,remaining binding at 1 µM,TLK2,77%
same,remaining binding at 1 µM,MST1R [3],98%
same,remaining binding at 1 µM,[4],83%
same,remaining binding at 1 µM,EGFR(L858R),100%
Cc1cccc(-c2cnc3occ(-c4ccc(C(=O)O)c(C5CCCC5)c4)c3c2)c1 [SGC-CAMKK2-1 (YL-36)],remaining binding at 1 µM,[5],98%
same,remaining binding at 1 µM,AURKA,100%
same,remaining binding at 1 µM,MST1R [6],86%
same,remaining binding at 1 µM,NIK,89%
same,remaining binding at 1 µM,EIF2AK1,100%
same,remaining binding at 1 µM,NEK3,100%
same,remaining binding at 1 µM,RET,98%
same,remaining binding at 1 µM,EPHA3,100%
same,remaining binding at 1 µM,FLT4,96%
same,remaining binding at 1 µM,[7],100%
same,remaining binding at 1 µM,CAMK2A,95%
same,remaining binding at 1 µM,IRAK1,100%
same,remaining binding at 1 µM,MET(M1250T),100%
same,remaining binding at 1 µM,CSNK1G3,99%
same,remaining binding at 1 µM,MKNK1,100%
same,remaining binding at 1 µM,PKN2,100%
same,remaining binding at 1 µM,PCTK2,100%
